{"source": "paper PMC10485159", "about": "“Biochemical functions and structure of Caenorhabditis elegans ZK177.8 protein: Aicardi–Goutières syndrome SAMHD1 dNTPase ortholog” (The Journal of Biological Chemistry, 2023)", "key": {"[1]": {"target": "T1, ZK177.8^41–565 (Caenorhabditis elegans, UniProt Q09374, H134R/D135N)", "T1 construct": "gene sahd-1; tetramer in asymmetric unit", "T1 sequence (Q09374 41-565 H134R/D135N)": "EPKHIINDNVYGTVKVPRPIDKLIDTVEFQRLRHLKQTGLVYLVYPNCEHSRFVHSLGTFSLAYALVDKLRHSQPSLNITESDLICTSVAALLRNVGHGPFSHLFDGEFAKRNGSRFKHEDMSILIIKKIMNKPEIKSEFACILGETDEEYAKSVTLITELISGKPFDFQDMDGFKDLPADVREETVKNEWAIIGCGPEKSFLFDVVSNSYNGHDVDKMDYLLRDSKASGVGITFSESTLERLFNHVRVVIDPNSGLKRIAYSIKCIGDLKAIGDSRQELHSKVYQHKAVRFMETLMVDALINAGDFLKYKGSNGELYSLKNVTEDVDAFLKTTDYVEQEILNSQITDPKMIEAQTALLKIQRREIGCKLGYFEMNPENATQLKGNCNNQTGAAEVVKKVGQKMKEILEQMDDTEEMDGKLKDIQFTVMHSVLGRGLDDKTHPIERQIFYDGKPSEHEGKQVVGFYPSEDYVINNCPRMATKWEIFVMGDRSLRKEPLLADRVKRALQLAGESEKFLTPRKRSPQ", "experiment": "X-ray crystallography, […] Å", "assay_type": "binding", "conditions": "crystals with 1 mM GTP / 10 mM dATP, pH 5.5"}, "[2]": {"target": "T2, hSAMHD1 (Homo sapiens, UniProt Q9Y3Z3)", "T2 construct": "gene SAMHD1; purified human SAMHD1; construct not described; dGTP-induced tetramer", "T2 sequence (Q9Y3Z3 whole entry)": "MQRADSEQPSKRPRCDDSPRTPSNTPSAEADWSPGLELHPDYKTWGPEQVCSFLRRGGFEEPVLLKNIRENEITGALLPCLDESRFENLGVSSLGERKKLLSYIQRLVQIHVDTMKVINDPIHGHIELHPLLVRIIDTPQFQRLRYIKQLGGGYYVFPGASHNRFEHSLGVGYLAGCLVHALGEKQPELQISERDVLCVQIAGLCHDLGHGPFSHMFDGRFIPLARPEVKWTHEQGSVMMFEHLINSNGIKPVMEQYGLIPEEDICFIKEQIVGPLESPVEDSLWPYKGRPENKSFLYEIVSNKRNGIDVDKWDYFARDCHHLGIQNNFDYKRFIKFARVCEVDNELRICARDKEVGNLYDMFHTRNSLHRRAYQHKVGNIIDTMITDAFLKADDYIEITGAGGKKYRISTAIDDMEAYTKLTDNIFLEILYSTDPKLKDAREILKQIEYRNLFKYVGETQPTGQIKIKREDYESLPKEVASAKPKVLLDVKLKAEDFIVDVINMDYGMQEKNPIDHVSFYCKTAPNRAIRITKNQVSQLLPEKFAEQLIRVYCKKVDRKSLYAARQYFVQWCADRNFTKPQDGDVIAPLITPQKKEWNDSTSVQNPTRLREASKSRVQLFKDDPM", "experiment": "formaldehyde cross-linking, dGTP-induced tetramerization, SDS-PAGE", "assay_type": "binding", "conditions": "2 mM dGTP, 10 μM protein, 50 mM KCl, 5 mM MgCl2, pH 7.5; allosteric activator; dGTPase activity also compared in supplement Fig. S3"}}}
{"compound": "Nc1nc2c(ncn2[C@@H]2O[C@H](COP(=O)(O)OP(=O)(O)OP(=O)(O)O)[C@@H](O)[C@H]2O)c(=O)[nH]1", "note": "[GTP]", "values": [{"measurement": "X-ray crystallography, 1.81 Å", "setting": "[1]; allosteric site A1 at tetramer interface", "value": "Two nucleotides, GTP and dATP, occupy the allosteric site located at the tetramer interface"}]}
{"compound": "Nc1nc2c(ncn2[C@H]2C[C@H](O)[C@@H](COP(=O)(O)OP(=O)(O)OP(=O)(O)O)O2)c(=O)[nH]1", "note": "[dGTP]", "values": [{"measurement": "formaldehyde cross-linking, dGTP-induced tetramerization, SDS-PAGE", "setting": "[2]", "value": "we detected the tetramer formation of hSAMHD1 protein only in the presence of dGTP"}]}
{"compound": "Nc1ncnc2c1ncn2[C@H]1C[C@H](O)[C@@H](COP(=O)(O)OP(=O)(O)OP(=O)(O)O)O1", "note": "[dATP]", "values": [{"measurement": "X-ray crystallography, 1.81 Å", "setting": "[1]; catalytic site, unhydrolysed, no catalytic metal, also bound at allosteric site A2", "value": "within each monomer, a dATP molecule occupies its catalytic site"}]}
